# Species on record: Rattus norvegicus
# Test: DrugMatrix - Regimen: Daily Repeat
# Assay type: toxicity, organism-based, Sprague-Dawley
# Set-up: regimen Daily Repeat, gender Male, age 6-8 weeks
# Settings: in vivo, sc, route subcutaneous, […]; for ABSOLUTE BASOPHIL / ABSOLUTE EOSINOPHIL / ABSOLUTE LYMPHOCYTE / ABSOLUTE MONOCYTE / ABSOLUTE SEGMENTED NEUTROPHIL / BASOPHIL / EOSINOPHIL / ERYTHROCYTE COUNT / HEMATOCRIT / HEMOGLOBIN / LEUKOCYTE COUNT / LYMPHOCYTE / MEAN CORPUSCULAR HEMOGLOBIN / MEAN CORPUSCULAR HEMOGLOBIN CONCENTRATION / MEAN CORPUSCULAR VOLUME / MONOCYTE / NEUTROPHIL / NUCLEATED RED BLOOD CELLS / PLATELET COUNT: tissue Blood; for ALANINE AMINOTRANSFERASE / ALBUMIN / ALKALINE PHOSPHATASE / ASPARTATE AMINOTRANSFERASE / BLOOD UREA NITROGEN / CARBON DIOXIDE / CHLORIDE / CHOLESTEROL / CREATINE PHOSPHOKINASE / CREATININE / GLUCOSE / LACTATE DEHYDROGENASE / LIPASE / PHOSPHORUS / POTASSIUM / SODIUM / TOTAL BILIRUBIN / TOTAL PROTEIN / URIC ACID: tissue Plasma
# [1] = 0 mg/kg, 72 h, dose level Control, time 3 day
# [2] = 0 mg/kg, 120 h, dose level Control, time 5 day
# [3] = 56 mg/kg, 72 h, dose level High, time 3 day
structure (smiles),measurement,setting,value
C[C@]12CCC(=O)C=C1CC[C@@H]1[C@@H]2[C@@H](O)C[C@@]2(C)[C@H]1CC[C@]2(O)C(=O)CO [HYDROCORTISONE],ABSOLUTE BASOPHIL,[1],0 CELLS/uL
same,ABSOLUTE EOSINOPHIL,[1],0 CELLS/uL
same,ABSOLUTE LYMPHOCYTE,[1],10887 CELLS/uL
same,ABSOLUTE MONOCYTE,[1],56 CELLS/uL
same,ABSOLUTE SEGMENTED NEUTROPHIL,[1],1057 CELLS/uL
same,BASOPHIL,[1],0%
same,EOSINOPHIL,[1],0%
same,ERYTHROCYTE COUNT,[1],5.31 x10E6/uL
same,HEMATOCRIT,[1],33.78%
same,HEMOGLOBIN,[1],13.4 G/DL
same,LEUKOCYTE COUNT,[1],12 x10E3/uL
same,LYMPHOCYTE,[1],91.17%
same,MEAN CORPUSCULAR HEMOGLOBIN,[1],25.25 pg
same,MEAN CORPUSCULAR HEMOGLOBIN CONCENTRATION,[1],39.65 G/DL
same,MEAN CORPUSCULAR VOLUME,[1],63.65 fL
same,MONOCYTE,[1],0.5%
same,NEUTROPHIL,[1],8.33%
same,NUCLEATED RED BLOOD CELLS,[1],0 /100WBC
same,PLATELET COUNT,[1],1142 x10E3/uL
same,ALANINE AMINOTRANSFERASE,[1],57.17 u/L
same,ALBUMIN,[1],4.28 G/DL
same,ALKALINE PHOSPHATASE,[1],425.83 u/L
same,ASPARTATE AMINOTRANSFERASE,[1],93.83 u/L
same,BLOOD UREA NITROGEN,[1],14.17 mg/dL
same,CARBON DIOXIDE,[1],33.5 mmol/L
same,CHLORIDE,[1],100 MEQ/L
same,CHOLESTEROL,[1],70.33 mg/dL
same,CREATINE PHOSPHOKINASE,[1],438.67 u/L
same,CREATININE,[1],0.19 mg/dL
same,GLUCOSE,[1],138.5 mg/dL
same,LACTATE DEHYDROGENASE,[1],190.17 u/L
same,LIPASE,[1],9.83 u/L
same,PHOSPHORUS,[1],11.05 mg/dL
same,POTASSIUM,[1],6.59 MEQ/L
same,SODIUM,[1],143.58 MEQ/L
same,TOTAL BILIRUBIN,[1],0.22 mg/dL
same,TOTAL PROTEIN,[1],6.15 G/DL
same,URIC ACID,[1],1.3 mg/dL
same,ABSOLUTE BASOPHIL,[2],0 CELLS/uL
same,ABSOLUTE EOSINOPHIL,[2],91.17 CELLS/uL
same,ABSOLUTE LYMPHOCYTE,[2],11847.67 CELLS/uL
same,ABSOLUTE MONOCYTE,[2],172.83 CELLS/uL
same,ABSOLUTE SEGMENTED NEUTROPHIL,[2],1105 CELLS/uL
same,BASOPHIL,[2],0%
same,EOSINOPHIL,[2],0.67%
same,ERYTHROCYTE COUNT,[2],5.35 x10E6/uL
same,HEMATOCRIT,[2],33.65%
same,HEMOGLOBIN,[2],13.42 G/DL
same,LEUKOCYTE COUNT,[2],13.22 x10E3/uL
same,LYMPHOCYTE,[2],89.83%
same,MEAN CORPUSCULAR HEMOGLOBIN,[2],25.12 pg
same,MEAN CORPUSCULAR HEMOGLOBIN CONCENTRATION,[2],39.9 G/DL
same,MEAN CORPUSCULAR VOLUME,[2],63 fL
same,MONOCYTE,[2],1.33%
same,NEUTROPHIL,[2],8.17%
same,NUCLEATED RED BLOOD CELLS,[2],0 /100WBC
same,PLATELET COUNT,[2],1347.83 x10E3/uL
same,ALANINE AMINOTRANSFERASE,[2],50 u/L
same,ALBUMIN,[2],4.1 G/DL
same,ALKALINE PHOSPHATASE,[2],329.17 u/L
same,ASPARTATE AMINOTRANSFERASE,[2],77.17 u/L
same,BLOOD UREA NITROGEN,[2],16.83 mg/dL
same,CARBON DIOXIDE,[2],34.83 mmol/L
same,CHLORIDE,[2],99.83 MEQ/L
same,CHOLESTEROL,[2],75.67 mg/dL
same,CREATINE PHOSPHOKINASE,[2],295.83 u/L
same,CREATININE,[2],0.18 mg/dL
same,GLUCOSE,[2],156.33 mg/dL
same,LACTATE DEHYDROGENASE,[2],166.83 u/L
same,LIPASE,[2],9.83 u/L
same,PHOSPHORUS,[2],12.18 mg/dL
same,POTASSIUM,[2],6.69 MEQ/L
same,SODIUM,[2],143.97 MEQ/L
same,TOTAL BILIRUBIN,[2],0.22 mg/dL
same,TOTAL PROTEIN,[2],6.05 G/DL
same,URIC ACID,[2],1.6 mg/dL
same,ABSOLUTE BASOPHIL,[3],0 CELLS/uL
same,ABSOLUTE EOSINOPHIL,[3],0 CELLS/uL
same,ABSOLUTE LYMPHOCYTE,[3],1706 CELLS/uL
same,ABSOLUTE MONOCYTE,[3],103.33 CELLS/uL
same,ABSOLUTE SEGMENTED NEUTROPHIL,[3],3357.33 CELLS/uL
same,BASOPHIL,[3],0%
same,EOSINOPHIL,[3],0%
same,ERYTHROCYTE COUNT,[3],5.79 x10E6/uL
same,HEMATOCRIT,[3],37.97%
same,HEMOGLOBIN,[3],14.73 G/DL
same,LEUKOCYTE COUNT,[3],5.17 x10E3/uL
same,LYMPHOCYTE,[3],33.33%
same,MEAN CORPUSCULAR HEMOGLOBIN,[3],25.47 pg
same,MEAN CORPUSCULAR HEMOGLOBIN CONCENTRATION,[3],38.87 G/DL
same,MEAN CORPUSCULAR VOLUME,[3],65.57 fL
same,MONOCYTE,[3],2%
same,NEUTROPHIL,[3],64.67%
same,NUCLEATED RED BLOOD CELLS,[3],0.33 /100WBC
same,PLATELET COUNT,[3],1157.67 x10E3/uL
same,ALANINE AMINOTRANSFERASE,[3],124.33 u/L
same,ALBUMIN,[3],5.07 G/DL
same,ALKALINE PHOSPHATASE,[3],509.67 u/L
same,ASPARTATE AMINOTRANSFERASE,[3],177.33 u/L
same,BLOOD UREA NITROGEN,[3],13.67 mg/dL
same,CARBON DIOXIDE,[3],29 mmol/L
same,CHLORIDE,[3],99 MEQ/L
same,CHOLESTEROL,[3],119.33 mg/dL
same,CREATINE PHOSPHOKINASE,[3],250.33 u/L
same,CREATININE,[3],0.17 mg/dL
same,GLUCOSE,[3],360 mg/dL
same,LACTATE DEHYDROGENASE,[3],443.67 u/L
same,LIPASE,[3],10.67 u/L
same,PHOSPHORUS,[3],10.63 mg/dL
same,POTASSIUM,[3],5.68 MEQ/L
same,SODIUM,[3],144.93 MEQ/L
same,TOTAL BILIRUBIN,[3],0.17 mg/dL
same,TOTAL PROTEIN,[3],6.97 G/DL
same,URIC ACID,[3],1.43 mg/dL

# — ChEMBL document CHEMBL3885881, “DrugMatrix”
